One data set concerns taenia coli. The data set is described as follows: Antagonistic activity to calcium in the taenia coli of guinea pigs (CaCl2-induced contractions, in vitro). The note with it: Cavia porcellus, 10 min, read-out: Calcium antagonistic activity in vitro ED50. The data set is classed as cell-based, Hartley albino guinea pigs. The protocol: Antagonistic Activity to Calcium in the Taenia Coli of Guinea Pigs
Hartley albino guinea pigs of average weight 450 g were used. The calcium antagonistic activity was determined stimulating the taenia coli, previously depolarized, with a single submaximal concentration of CaCl2 (10^-3 M), at intervals of 20 minutes (according to the method Naunyn Schmied. Arch. Pharmacol. 318, 235 (1982)). The products were left in contact with the preparation for 10 minutes. The ED50 were calculated from the percentage of maximum inhibition.

The subject of data set [1] is Spontaneous Hypertensive Rats (SHR). The data set is described as follows: Hypotensive activity in spontaneous hypertensive rats (SHR). It counts as in vivo, Male SHR (Okamoto) rats. The note with it: for ED (25%): Rattus norvegicus, po, p.o. in 0.4% carboxymethyl cellulose, systolic arterial pressure, read-out: Hypotensive activity in SHR ED^SABP -25%; for Hypotensive activity compared with Nifedipine / Duration of hypotensive activity (still present after) / Hypotensive activity relative to Nifedipine: p.o.; for Hypotensive activity compared with Nifedipine: versus Nifedipine; for Hypotensive activity relative to Nifedipine: multiple of Nifedipine activity. Here is the method: Hypotensive Activity in Spontaneous Hypertensive Rats (SHR)
Male SHR (Okamoto), of 70-100 days of age were used. The systolic arterial pressure (SABP) was determined by applying to the tail of the animal a pressure transducer with a sleeve connected to a BP-Recorder (W-W Electronic of Basel). The animals were previously warmed to 39° C. for a period of 15-20 minutes in a ventilated chamber.
The rats were previously trained to the registration for 1-2 days prior to the start of the experiment which consisted of a basic registration, the pharmacological treatment and then of subsequent registrations one hour and three hours after the treatment.
All the products were administered orally (p.o.), suspended in 0.4% carboxymethyl cellulose (Methocel); the volume of vehicle was 2 ml per kg.
The compounds of formula (I) were tested at three dose levels and the value of ED-25% was determined.

A short description of the next data set: in vivo. As to conditions: mouse, iv, mice, i.v. in dimethylsulfoxide, after seven days, Litchfield and Wilcoxon. Here is the method: Intravenous Toxicity in Mice
Male CD1 mice from Charles River (Italy), weighing 25 g were used. Compounds were administered intravenously (i.v.), dissolved in dimethylsulfoxide, and the volume of administration was 0.01 ml per 10 g of body weight. The LD50 after seven days, was calculated according to the method of Litchfield and Wilcoxon (Experimental Therapeutics 96, 99 (1949)).

The mark [2] stands for this setting: guinea pig taenia coli, depolarized, CaCl2 10^-3 M, 10 min contact, from maximum inhibition.

Structures are written as SMILES. Where two headings read alike, the source gives them in different places.

As usually defined, the LD50 is the dose at which mortality reaches 50%. Low readings indicate greater toxicity, high ones lower toxicity.

Turning to `COC(=O)C1=C(C)NC(C)=C(C(=O)OCCN2CCN(c3ccccc3Cl)CC2)C1c1cccc([N+](=O)[O-])c1` (stereo not shown) [0248B], in the data set with taenia coli (setting [2]), the IC50 was 3 nM. Besides, in data set [1], the ED (25%) is 13.8 mg/kg and the “Hypotensive activity compared with Nifedipine” value was “superior activity”. In “in vivo”, the LD50 at 168 h was found to be 24.7 mg/kg.
On to `COC(=O)C1=C(C)NC(C)=C(C(=O)OCCN2CCN(c3ccc(Cl)cc3)CC2)C1c1cccc([N+](=O)[O-])c1` (stereo not shown) [0264B], for which the IC50 in the data set with taenia coli (setting [2]) is 6.4 nM. Further, in data set [1], the ED (25%) amounted to 6.3 mg/kg, the “Duration of hypotensive activity (still present after)” value was not below 30 h, the “Hypotensive activity relative to Nifedipine” value is listed as “about twice the activity of Nifedipine” and the “Hypotensive activity compared with Nifedipine” value is “superior activity”. For the same compound, the LD50 at 168 h in the data set “in vivo” stood at 32.1 mg/kg.
On to `CC1=C(C(=O)OCCN2CCN(c3ccccc3)CC2)C(c2cccc([N+](=O)[O-])c2)C(C(=O)OCC(C)C)=C(C)N1` (stereo not shown) [0289C, 2-(4-Phenyl)piperazinoethyl-2,6-dimethyl-4-(3-nitrophenyl)-5-isobutoxycarbonyl-1,4-dihydropyridine-3-carboxylate], for which the IC50 in the data set with taenia coli (setting [2]) stood at 6.3 nM. For the same compound, the ED (25%) in data set [1] came out at 2.2 mg/kg. The same compound gave a median lethal dose (LD50) at 168 h in “in vivo” of 12 mg/kg.
With `COC(=O)C1=C(C)NC(C)=C(C(=O)OCCN2CCN(c3ccccc3)CC2)C1c1cccc([N+](=O)[O-])c1` (stereo not shown) [0219A, 2-(4-Phenyl)piperazino-ethyl 2,6-dimethyl-4-(3-nitrophenyl)-5-methoxycarbonyl-1,4-dihydropyridine-3-carboxylate], in the data set with taenia coli (setting [2]), the IC50 turned out to be 2.4 nM. The ED (25%) in data set [1] worked out at 8.7 mg/kg. The compound further registered a median lethal dose (LD50) at 168 h in the data set “in vivo” of 8.6 mg/kg.
Taken in the same sequence, the figures for `COC(=O)C1=C(C)NC(C)=C(C(=O)OCCN2CCN(c3ccc(OC)cc3)CC2)C1c1cccc([N+](=O)[O-])c1` (stereo not shown) [0266B] were 3.6 nM, 10.7 mg/kg and 22.7 mg/kg.
Regarding `CC1=C(C(=O)OCCN2CCN(c3ccc(F)cc3)CC2)C(c2cccc([N+](=O)[O-])c2)C(C(=O)OCC(C)C)=C(C)N1` (stereo not shown) [0282C], the IC50 in the data set with taenia coli (setting [2]) was determined as 4.9 nM. Also, in data set [1], the ED (25%) worked out at 3.9 mg/kg. The compound also came in with a 50% lethal dose (LD50) at 168 h in the data set “in vivo” of 27.5 mg/kg.
Taken in the same sequence, the figures for `COCCOC(=O)C1=C(C)NC(C)=C(C(=O)OCCN2CCN(c3ccc(F)cc3)CC2)C1c1cccc([N+](=O)[O-])c1` (stereo not shown) [0283C] were 2.6 nM, 8.3 mg/kg and 7.8 mg/kg.
Turning to `COC(=O)C1=C(C)NC(C)=C(C(=O)OCCN2CCN(c3cccc(C(F)(F)F)c3)CC2)C1c1cccc([N+](=O)[O-])c1` (stereo not shown) [0249B], the IC50 in the data set on taenia coli (setting [2]) was found to be 22 nM. For the same compound, in data set [1], the ED (25%) came out at 6.6 mg/kg, the “Duration of hypotensive activity (still present after)” value was not below 30 h, the “Hypotensive activity relative to Nifedipine” value is “about twice the activity of Nifedipine” and the “Hypotensive activity compared with Nifedipine” value is “superior activity”. This compound gave an LD50 at 168 h in the data set “in vivo” of 35.3 mg/kg.
Turning to `COC(=O)C1=C(C)NC(C)=C(C(=O)OCCN2CCN(c3ccc([N+](=O)[O-])c(C(F)(F)F)c3)CC2)C1c1cccc([N+](=O)[O-])c1` (stereo not shown) [0296C, 2-[4-(3-Trifluoromethyl-4-nitrophenyl)]piperazinoethyl-2,6-dimethyl-4-(3-nitrophenyl)-5-methoxycarbonyl-1,4-dihydropyridine-3-carboxylate], the IC50 in the data set on taenia coli was 19 nM. Besides, the ED (25%) in data set [1] is 87 mg/kg. Further, in the data set “in vivo”, the LD50 at 168 h amounted to 55 mg/kg.

Values taken from patent US4894460A (Pierrel S.p.A., priority 1982, dated 1990).
